We go through 16 molecules from PubChem BioAssay (NCI).

Common to all, as to assay: DTP human tumour cell line panel, 48 h
Assay [1] deals with 786-0 renal.
Assay [2] has as its system A498 renal.
In assay [3] the test system is A549 NSCLC.
Assay [4] relates to BT-549 breast.
The subject of assay [5] is CAKI-1 renal.
Assay [6] has as its system CCRF-CEM leukemia.
Assay [7] concerns HCT-15 colon.
Assay [8] relates to KM12 colon.
Assay [9] has as its system MDA-MB-231 breast.
Assay [10] concerns NCI-H226 lung.
The subject of assay [11] is NCI/ADR-RES ovarian.
Assay [12] deals with SF-268 CNS.
Assay [13] deals with SF-295 CNS.
Assay [14] relates to SF-539 CNS.
The test system of assay [15] is SK-MEL-28 melanoma.
In assay [16] the test system is SK-OV-3 ovarian.
For assay [17], the system named is TK-10 renal.
The subject of assay [18] is HL-60(TB) leukemia.
Assay [19] relates to PC-3 prostate.
The test system of assay [20] is SK-MEL-2 melanoma.

The structures appear in SMILES notation.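 Dose response: 5 concentrations. Exposure: 48 h. Format: 96-well plates. Endpoint: linear interpolation; highest concentration if not reached. TGI: concentration producing complete growth inhibition.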 *1 amine or outer side, *2 acyl side, *3 side chain or, on linkers, in order; H or OH if unused. Where a SMILES comes first, the peptide text is derived from it. Bridges are numbered along the chain shown (N, C = ends). Roman numbers before positions name the chains, in order. [ ]: non-standard residue; d: D form. Actinocin(9to1) = Cc1c2oc3c(C)ccc(C(=O)[*:1])c3nc-2c(C(=O)[*:2])c(N)c1=O; X48 = O=C1CC(C(=O)[*:2])N([*:1])C1; NMeV = CN[CH](C(=O)O)C(C)C; Sar = CNCC(=O)O

In general, TGI refers to the concentration giving total growth inhibition. A higher TGI goes with lower sensitivity of the cells. For `O=C1c2cccnc2S(=O)N1Cc1ccccc1` (stereo not drawn), the TGI in assay [1], in assay [2], in assay [3], in [4], in assay [5] and in [6] was over 100 µM each time. Also, the TGI in assay [7], in assay [8], in assay [9], in [10], in assay [11] and in [12] was over 100 µM throughout. Further, the TGI in assay [13], in [14], in assay [15], in assay [16] and in assay [17] was over 100 µM throughout.
As for `CC(C)OCC(O)COc1ccc2ccc(=O)oc2c1` (stereo not drawn), the total growth inhibition concentration (TGI) in assay [1], in assay [3], in [5], in [6], in [7] and in assay [18] was over 100 µM each time. Further, the TGI in [8], in [9], in assay [11], in assay [19], in assay [12] and in [13] was over 100 µM throughout. Besides, the TGI in assay [15], in assay [16] and in assay [17] was over 100 µM throughout.
Take `O=C1OCC2(CO1)CC1C=CC2C1` (stereo not drawn): the total growth inhibition concentration (TGI) in [1], in assay [2], in [3], in assay [5], in [7] and in assay [18] was over 100 µM each time. The TGI in assay [8], in [9], in [10], in assay [11], in assay [19] and in assay [12] was over 100 µM throughout. Besides, the TGI in [13], in [14], in assay [20], in assay [15], in [16] and in assay [17] was over 100 µM throughout.
On to `CCc1ccc(Nc2cc(=O)[nH]c(SCc3ccccc3)n2)cc1`, for which the concentration for total growth inhibition (TGI) in assay [1], in assay [2], in [3], in assay [4], in assay [5] and in [6] was over 100 µM each time. Besides, the TGI in [7], in assay [18], in assay [8], in assay [9], in assay [10] and in assay [11] was over 100 µM in each case. Besides, the TGI in assay [12], in assay [13], in assay [14], in [20], in assay [16] and in assay [17] was over 100 µM throughout.
For `CCOC(=O)c1nc2ccccc2nc1NCc1ccc(OC)cc1`, the concentration for total growth inhibition (TGI) in assay [1], in [2], in [3], in [4], in assay [5] and in assay [6] was over 100 µM throughout. The TGI in assay [7], in assay [18], in assay [8], in [9], in assay [10] and in [11] was over 100 µM throughout. Also, the TGI in assay [12], in assay [13], in assay [14], in assay [15], in [16] and in assay [17] was over 100 µM throughout.
Take `Nc1ncnc2c1ncn2C1C=CC(CP(=O)(O)O)C1` (stereo not drawn): the total growth inhibition concentration (TGI) in [1], in assay [3], in assay [5], in assay [7], in assay [8] and in assay [9] was over 100 µM in each case. In addition, the total growth inhibition concentration (TGI) in assay [10], in assay [11], in assay [19], in assay [12], in assay [13] and in assay [14] was over 100 µM throughout. Also, the total growth inhibition concentration (TGI) in assay [20], in [15], in [16] and in [17] was over 100 µM throughout.
For the molecule `C=CCNC(=S)N1c2ccccc2NC(=O)CC1C` (stereo not drawn), the TGI in assay [1], in assay [3], in assay [6], in [7], in assay [18] and in assay [8] was over 100 µM each time. Besides, the TGI in assay [10], in [12], in assay [13], in assay [14], in assay [20] and in assay [15] was over 100 µM in each case. In assay [17], this molecule returned a total growth inhibition concentration (TGI) of over 100 µM.
As to `CCOP(=O)(OCC)C1CC(O)CN1OC(=O)C(C)(C)C` (stereo not drawn), the TGI in [1], in [2], in assay [3], in assay [6], in assay [7] and in assay [8] was over 100 µM throughout. In addition, the TGI in assay [9], in assay [10], in [11], in assay [19], in [12] and in assay [13] was over 100 µM in each case. The TGI in assay [20], in [15], in assay [16] and in assay [17] was over 100 µM in each case.
For the molecule `C[C@]12CCC(=O)C=C1CC[C@@H]1[C@@H]2CC[C@]2(C)C(=O)[C@H](n3ccnc3)C[C@@H]12`, the TGI in assay [1], in assay [2], in [3], in assay [5], in assay [6] and in assay [7] was over 100 µM throughout. Besides, the TGI in assay [18], in [8], in assay [9], in [10], in assay [11] and in assay [19] was over 100 µM each time. Besides, the TGI in assay [12], in assay [13], in [14], in [20], in assay [15] and in assay [17] was over 100 µM in each case.
Regarding `CSC(=NCCCCN=C(NS(=O)(=O)c1ccc(Cl)cc1)SC)NS(=O)(=O)c1ccc(Cl)cc1`, the TGI in assay [1], in [2], in assay [5], in assay [6], in assay [7] and in [18] was over 100 µM throughout. Also, the TGI in [9], in assay [11], in assay [19], in [12], in assay [13] and in assay [14] was over 100 µM in each case. Moreover, the TGI in assay [20], in [15] and in assay [17] was over 100 µM each time.
As to `CC1(C)CC[C@]2(C(=O)O)CC[C@]3(C)C(=CC[C@@H]4[C@@]5(C)C[C@H](O)[C@H](O)[C@@](C)(CO)C5=CC[C@]43C)[C@@H]2C1`, the concentration for total growth inhibition (TGI) in assay [1], in [2], in assay [3], in [5], in assay [6] and in assay [7] was over 100 µM each time. Further, the TGI in assay [18], in assay [8], in assay [9], in assay [11], in assay [19] and in assay [12] was over 100 µM each time. Also, the TGI in assay [13], in assay [14], in [20], in assay [15], in assay [16] and in assay [17] was over 100 µM throughout.
For `O=C1c2ccccc2-c2nc3ccc(O)cc3n21`, the TGI in [1], in assay [3], in assay [4], in assay [5], in assay [6] and in assay [7] was over 100 µM each time. The TGI in assay [18], in assay [8], in assay [10], in assay [11], in assay [19] and in assay [12] was over 100 µM each time. The TGI in assay [13], in [14], in assay [20], in [15], in assay [16] and in assay [17] was over 100 µM throughout.
With `OCC1NCC(O)C(O)C1O` (stereo not drawn), the TGI in assay [1], in [2], in [3], in assay [4], in assay [5] and in [6] was over 100 µM in each case. Besides, the total growth inhibition concentration (TGI) in [7], in assay [18], in assay [8], in [19], in [12] and in [14] was over 100 µM each time. Besides, the total growth inhibition concentration (TGI) in assay [15], in assay [16] and in [17] was over 100 µM in each case.
As for `Cc1c2oc3c(C)ccc(C(=O)NC4C(=O)NC(C(C)C)C(=O)N5CC(=O)CC5C(=O)N(C)CC(=O)N(C)C(C(C)C)C(=O)OC4C)c3nc-2c(C(=O)NC2C(=O)NC(C(C)C)C(=O)N3CC(=O)CC3C(=O)N(C)CC(=O)N(C)C(C(C)C)C(=O)OC2C)c(N)c1=O` (stereo not drawn) (I: TV[X48][Sar][NMeV] / II: TV[X48][Sar][NMeV]; ester I:1-I:C, II:1-II:C; linker I:N-II:N via Actinocin(9to1); configuration not given here), the TGI in assay [1], in assay [2], in [3], in assay [5], in assay [6] and in [7] was over 1 µM each time. For the same molecule, the TGI in assay [18], in [9], in [10], in [11], in [19] and in assay [13] was over 1 µM each time. Moreover, the TGI in [14], in [20], in assay [15], in assay [16] and in assay [17] was over 1 µM in each case.
Turning to `COC1O[C@@H]2CCN3C(=O)[C@@H](OC(=O)c4ccc([N+](=O)[O-])cc4)[C@H]1C23` (stereo partly drawn), the concentration for total growth inhibition (TGI) in assay [1], in assay [2], in assay [3], in assay [5], in [6] and in [8] was over 100 µM throughout. Also, the TGI in assay [9], in assay [10], in [11], in [12], in assay [13] and in assay [14] was over 100 µM throughout. Moreover, the concentration for total growth inhibition (TGI) in assay [16] and in assay [17] was over 100 µM throughout.
With `NCC#CCNCCCN1CC1`, the concentration for total growth inhibition (TGI) in assay [1], in [2], in assay [3], in [5], in assay [7] and in assay [18] was over 100 µM in each case. The TGI in [8], in assay [10], in [11], in assay [19], in assay [12] and in assay [13] was over 100 µM each time. The TGI in assay [14], in [20], in [15], in assay [16] and in assay [17] was over 100 µM in each case.
